According to US8975400B2, “2,3-dihydroimidazo[1, 2-c] pyrimidin-5(1 H)-one compounds use as LP-PLA2 inhibitors” (Glaxo Group Limited, priority 2011, dated 2015):
Counter-ions that a name gives are not always drawn.

Assays:
[1] = molecular target: T1, recombinant human Lp-PLA2 (Homo sapiens, UniProt Q13093); assay: Recombinant human Lp-PLA2 assay (rhLp-PLA2, PED6 assay); format: biochemical; conditions: recombinant human Lp-PLA2, PED6 substrate; upper limit for pIC50 in this assay is 9.3
T1 sequence (Q13093 22-441): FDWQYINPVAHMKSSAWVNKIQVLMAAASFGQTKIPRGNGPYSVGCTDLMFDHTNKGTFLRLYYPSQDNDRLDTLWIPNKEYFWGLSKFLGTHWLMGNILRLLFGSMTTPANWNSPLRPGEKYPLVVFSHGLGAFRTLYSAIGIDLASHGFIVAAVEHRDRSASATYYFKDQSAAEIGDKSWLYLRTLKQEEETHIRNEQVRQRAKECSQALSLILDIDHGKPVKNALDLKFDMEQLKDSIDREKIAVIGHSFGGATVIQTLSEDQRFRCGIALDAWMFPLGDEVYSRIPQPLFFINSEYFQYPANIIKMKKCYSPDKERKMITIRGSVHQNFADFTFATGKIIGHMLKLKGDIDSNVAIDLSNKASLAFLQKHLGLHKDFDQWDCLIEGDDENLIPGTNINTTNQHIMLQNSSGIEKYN
Procedure, shortened: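 Compound preincubated 30 min with rhLp-PLA2 (4 nM or 110 pM) in 50 mM HEPES pH 7.4, 150 mM NaCl, 1 mM CHAPS, then PED6 substrate (4 μM or 5 μM) added. After 20 min at room temperature protected from light, fluorescence read at ex 480/em 540. pIC50 derived from serial-dilution curves.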

[2] = molecular target: T2, Lp-PLA2 in human plasma (Homo sapiens, UniProt Q13093); assay: Lp-PLA2 human plasma assay (Thio-PAF assay); format: biochemical; conditions: pooled human plasma, 2-thio-PAF substrate; read-out: pIC50 in the thio-PAF assay (converted)
T2 construct: This assay may detect the activity of Lp-PLA2 in human plasma; from tissue; host or cells: pooled human plasma
T2 sequence (Q13093 22-441): T1 sequence (Q13093 22-441)
Procedure, shortened: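 Pooled human plasma preincubated 30 min with serially diluted compounds, then 2-thio-PAF substrate with CPM and NEM added in 50 mM HEPES pH 7.4, 150 mM NaCl, 1 mM CHAPS. TFA-quenched after 2 min, 40 min at RT, fluorescence ex 380/em 485; pIC50 from curve fit.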

SMILES | IC50 [1] [µM] | IC50 [2] [µM]
CN1CCn2c1cc(OCc1cc(F)c(Oc3ccc(C(F)(F)F)c(F)c3)c(F)c1)nc2=O [Example 140, 7-((3,5-difluoro-4-(3-fluoro-4-(trifluoromethyl)phenoxy)benzyl)oxy)-1-methyl-2,3-dihydroimidazo[1,2-c]pyrimidin-5(I H)-one] | ≤ 0.001 | ≤ 0.1
CN1CCn2c1cc(OCc1ccc(Oc3ccnc(C#N)c3)c(C#N)c1)nc2=O [Example 130, 4-(2-cyano-4-(((1-methyl-5-oxo-1,2,3,5-tetrahydroimidazo[1,2-c]pyrimidin-7-yl)oxy)methyl)phenoxy)picolinonitrile, trifluoroacetic acid salt] | ≤ 0.01 | ≤ 0.1
N#Cc1cc(COc2cc3n(c(=O)n2)CCN3)ccc1Oc1cc(F)cc(C(F)(F)F)c1 [Example 120, 2-(3-fluoro-5-(trifluoromethyl)phenoxy)-5-(((5-oxo-1,2,3,5-tetrahydroimidazo[1,2-c]pyrimidin-7-yl)oxy)methyl)benzonitrile] | ≤ 0.01 | ≤ 0.1
CN1CCn2c1cc(OCc1ccc(Oc3cncc(C(F)(F)F)c3)c(C#N)c1)nc2=O [Example 115, 5-(((1-methyl-5-oxo-1,2,3,5-tetrahydroimidazo[1,2-c]pyrimidin-7-yl)oxy)methyl)-2-((5-(trifluoromethyl)pyridin-3-yl)oxy)benzonitrile, trifluoroacetic acid salt] | 0.00398 | ≤ 0.1
CN1CCn2c1cc(OCc1cc(F)c(Oc3cncc(C(F)(F)F)c3)c(F)c1)nc2=O [Example 147, 7-((3,5-difluoro-4-((5-(trifluoromethyl)pyridin-3-yl)oxy)benzyl)oxy)-1-methyl-2,3-dihydroimidazo[1,2-c]pyrimidin-5(1H)-one] | 0.001 | ≤ 0.1
CN1CCn2c1cc(OCc1ccc(Oc3ccnc(Cl)c3)c(C#N)c1)nc2=O [Example 107, 2-((2-chloropyridin-4-yl)oxy)-5-(((1-methyl-5-oxo-1,2,3,5-tetrahydroimidazo[1,2-c]pyrimidin-7-yl)oxy)methyl)benzonitrile] | ≤ 0.01 | ≤ 1
CN1CCn2c1cc(OCc1ccc(Oc3ccc(Cl)c(C#N)c3)c(F)c1)nc2=O [Example 125, 2-chloro-5-(2-fluoro-4-(((1-methyl-5-oxo-1,2,3,5-tetrahydroimidazo[1,2-c]pyrimidin-7-yl)oxy)methyl)phenoxy)benzonitrile] | ≤ 0.001 | ≤ 0.1
CN1CCn2c1cc(OCc1ccc(Oc3cncc(Cl)c3)c(C#N)c1)nc2=O [Example 134, 2-((5-chloropyridin-3-yl)oxy)-5-(((1-methyl-5-oxo-1,2,3,5-tetrahydroimidazo[1,2-c]pyrimidin-7-yl)oxy)methyl)benzonitrile] | ≤ 0.01 | ≤ 0.1
N#Cc1cc(COc2cc3n(c(=O)n2)CCN3)ccc1Oc1ccc(Cl)c(C(F)(F)F)c1 [Example 96, 2-(4-chloro-3-(trifluoromethyl)phenoxy)-5-(((5-oxo-1,2,3,5-tetrahydroimidazo[1,2-c]pyrimidin-7-yl)oxy)methyl)benzonitrile] | ≤ 0.01 | ≤ 0.1
CN1CCn2c1cc(OCc1ccc(Oc3ccc(Cl)nc3)c(F)c1)nc2=O [Example 103, 7-((4-((6-chloropyridin-3-yl)oxy)-3-fluorobenzyl)oxy)-1-methyl-2,3-dihydroimid-azo[1,2-c]pyrimidin-5(1H)-one, trifluoroacetic acid salt] | ≤ 0.01 | ≤ 0.1
CN1CCn2c1cc(OCc1ccc(Oc3cncc(C(F)(F)F)c3)c(F)c1)nc2=O [Example 126, 7-((3-fluoro-4-((5-(trifluoromethyl)pyridin-3-yl)oxy)benzyl)oxy)-1-methyl-2,3-dihydroimidazo[1,2-c]pyrimidin-5(1H)-one] | ≤ 0.01 | ≤ 0.1
CN1CCn2c1cc(OCc1ccc(Oc3ccc(C#N)c(Cl)c3)c(F)c1)nc2=O [Example 128, 2-chloro-4-(2-fluoro-4-(((1-methyl-5-oxo-1,2,3,5-tetrahydroimidazo[1,2-c]pyrimidin-7-yl)oxy)methyl)phenoxy)benzonitrile] | ≤ 0.001 | ≤ 0.1

The next lines start with the values.

IC50 [1] [µM] | IC50 [2] [µM] | SMILES
≤ 0.001 | ≤ 1 | N#Cc1cc(COc2cc3n(c(=O)n2)CCN3)ccc1Oc1ccc(F)c(F)c1 [Example E72, 2-(3,4-difluorophenoxy)-5-(((5-oxo-1,2,3,5-tetrahydroimidazo[1,2-c]pyrimidin-7-yl)oxy)methyl)benzonitrile, trifluoroacetic acid salt]
≤ 0.001 | ≤ 0.1 | CN1CCn2c1cc(OCc1ccc(Oc3ccc(F)c(F)c3)c(F)c1)nc2=O [Example E4, 7-((4-(3,4-difluorophenoxy)-3-fluorobenzyl)oxy)-1-methyl-2,3-dihydroimidazo[1,2-c]pyrimidin-5(1H)-one]
≤ 0.001 | ≤ 0.1 | CC(C)N1CCn2c1cc(OCc1ccc(Oc3cccc(C(F)(F)F)c3)c(C#N)c1)nc2=O [Example E51, 5-(((1-isopropyl-5-oxo-1,2,3,5-tetrahydroimidazo[1,2-c]pyrimidin-7-yl)oxy)methy)-2-(3-(trifluoromethyl)phenoxy)benzonitrile, trifluoroacetic acid salt]
≤ 0.001 | ≤ 0.1 | N#Cc1cc(COc2cc3n(c(=O)n2)CCN3)ccc1Oc1cccc(C(F)(F)F)c1 [Example E67, 5-(((5-oxo-1,2,3,5-tetrahydroimidazo[1,2-c]pyrimidin-7-yl)oxy)methyl)-2-(3-(trifluoromethyl)phenoxy)benzonitrile]
≤ 0.01 | ≤ 1 | CN1CCn2c1cc(OCc1ccc(Oc3ccc(C(F)(F)F)cc3)c(C#N)c1)nc2=O [Example E24, 5-(((1-methyl-5-oxo-1,2,3,5-tetrahydroimidazo[1,2-c]pyrimidin-7-yl)oxy)methyl)-2-(4-(trifluoromethyl)phenoxy)benzonitrile, trifluoroacetic acid salt]
≤ 0.001 | ≤ 1 | N#Cc1cc(COc2cc3n(c(=O)n2)CCN3)ccc1Oc1ccc(F)c(Cl)c1 [Example E76, 2-(3-chloro-4-fluorophenoxy)-5-(((5-oxo-1,2,3,5-tetrahydroimidazo[1,2-c]pyrimidin-7-yl)oxy)methyl)benzonitrile, trifluoroacetic acid salt]
≤ 0.001 | ≤ 0.1 | CN1CCn2c1cc(OCc1cc(F)c(Oc3ccc(F)c(C(F)(F)F)c3)c(F)c1)nc2=O [Example E81, 7-((3,5-difluoro-4-(4-fluoro-3-(trifluoromethyl)phenoxy)benzyl)oxy)-1-methyl-2,3-dihydroimidazo[1,2-c]pyrimidin-5(1H)-one]
≤ 0.001 | ≤ 0.1 | O=c1nc(OCc2ccc(Oc3ccc(F)c(C(F)(F)F)c3)c(F)c2)cc2n1CCN2 [Example E66, 7-((3-fluoro-4-(4-fluoro-3-(trifluoromethyl)phenoxy)benzyl)oxy)-2,3-dihydroimidaz-o[1,2-c]pyrimidin-5(1H)-one]
≤ 0.001 | ≤ 0.1 | CN1CCn2c1cc(OCc1cc(F)c(Oc3ccc(F)c(Cl)c3)c(F)c1)nc2=O [Example E87, 7-((4-(3-chloro-4-fluorophenoxy)-3,5-difluorobenzyl)oxy)-1-methyl-2,3-dihydroimidazo[1,2-c]pyrimidin-5(1H)-one]
